From ChEMBL document CHEMBL2069260, “Synthesis and evaluation of novel 2-pyridone derivatives as inhibitors of phosphodiesterase3 (PDE3): a target for heart failure and platelet aggregation” (Bioorg Med Chem Lett, 2012)

Key:
Type in all cases: protein assay
[1] = biological target: T1, Phosphodiesterase 3 (Homo sapiens, UniProt Q14432+Q13370); assay: Inhibition of PDE3 at 500 uM by Biomol Green quantizyme assay system
[2] = biological target: T1, Phosphodiesterase 3; assay: Inhibition of PDE3 by Biomol Green quantizyme assay system
[3] = biological target: T1, Phosphodiesterase 3; assay: Inhibition of PDE3 at 100 nmol by Biomol Green quantizyme assay system
[4] = biological target: T1, Phosphodiesterase 3; assay: Inhibition of PDE3 at 1 nM by Biomol Green quantizyme assay system
[5] = biological target: T1, Phosphodiesterase 3; assay: Inhibition of PDE3 at 10 uM by Biomol Green quantizyme assay system

**Q.** How did the inhibition [1] turn out when `N#Cc1cc(Cc2ccc(Br)cc2)c(=O)[nH]c1-c1ccccc1` was run?
**A.** 4.3%

**Q.** For `CCCc1cc(C(=O)OCC)c(C)[nH]c1=O`, which IC50 [2] is on record?
**A.** 125.1 µM

**Q.** And the inhibition [1]?
**A.** 78.2%

**Q.** And the inhibition [3]?
**A.** 40%

**Q.** And the inhibition [4]?
**A.** 6.15%

**Q.** With `Cc1[nH]c(=O)c(Cc2ccc(Br)cc2)cc1C#N` as the compound, how does the inhibition [1] read?
**A.** 17.3%

**Q.** Which results are given for `Cc1[nH]c(=O)c(Cc2ccccc2Cl)cc1C#N`?
**A.** IC50 [2]: 423.2 µM; inhibition [1]: 80.4%; inhibition [3]: 7.69%; inhibition [4]: 0%

**Q.** For `CCOC(=O)c1cc(Cc2ccc(C)cc2)c(=O)[nH]c1C`, which IC50 [2] is on record?
**A.** 172.5 µM

**Q.** And the inhibition [1]?
**A.** 80.1%

**Q.** What about the inhibition [5] of the same compound?
**A.** 35.4%

**Q.** And the inhibition [4]?
**A.** 0%

**Q.** Which results are given for `Cc1[nH]c(=O)c(Cc2ccccc2)cc1C#N`?
**A.** IC50 [2]: 128.3 µM; inhibition [1]: 84.6%; inhibition [3]: 38.5%; inhibition [4]: 35.4%

**Q.** How did the IC50 [2] turn out when `CCOC(=O)c1cc(Cc2ccc(Br)cc2)c(=O)[nH]c1C` was run?
**A.** 38.5 µM

**Q.** What about the inhibition [1] of the same compound?
**A.** 79.1%

**Q.** And the inhibition [3]?
**A.** 47.7%

**Q.** What about the inhibition [4] of the same compound?
**A.** 44.6%

**Q.** For `CCOC(=O)c1cc(Cc2cccc(Cl)c2)c(=O)[nH]c1-c1ccccc1`, which IC50 [2] is on record?
**A.** 312.4 µM

**Q.** What about the inhibition [1] of the same compound?
**A.** 80.9%

**Q.** What about the inhibition [5] of the same compound?
**A.** 20%

**Q.** What about the inhibition [4] of the same compound?
**A.** 0%

**Q.** What does the source list for `Cc1[nH]c(=O)c(C#N)cc1-c1ccncc1`?
**A.** inhibition [1]: 90.6%; inhibition [5]: 91.7%

**Q.** Which inhibition [1] does the source give for `CCOC(=O)c1cc(Cc2ccccc2)c(=O)[nH]c1C` here?
**A.** 42.9%

**Q.** Which inhibition [1] does the source give for `CCOC(=O)c1cc(Cc2ccc(Cl)cc2)c(=O)[nH]c1C` here?
**A.** 43%

**Q.** `CCOC(=O)c1cc(Cc2ccc(C)cc2)c(=O)[nH]c1-c1ccccc1` was tested. Which inhibition [1] did it give?
**A.** 42.2%

**Q.** How did the IC50 [2] turn out when `CCOC(=O)c1cc(Cc2cccc(Cl)c2)c(=O)[nH]c1C` was run?
**A.** 7.49 µM

**Q.** What about the inhibition [1] of the same compound?
**A.** 83.2%

**Q.** What about the inhibition [3] of the same compound?
**A.** 30.8%

**Q.** And the inhibition [5]?
**A.** 56.9%

**Q.** What does the source list for `CCOC(=O)c1cc(Cc2ccc(Cl)cc2Cl)c(=O)[nH]c1C`?
**A.** IC50 [2]: 172.13 µM; inhibition [1]: 78.3%; inhibition [3]: 30.8%; inhibition [5]: 35.4%

**Q.** How did the inhibition [1] turn out when `N#Cc1cc(Cc2ccccc2)c(=O)[nH]c1-c1ccccc1` was run?
**A.** 22.5%

**Q.** `CCOC(=O)c1cc(Cc2ccccc2Cl)c(=O)[nH]c1C` was tested. Which inhibition [1] did it give?
**A.** 53.9%

**Q.** With `Cc1ccc(Cc2cc(C#N)c(C)[nH]c2=O)cc1` as the compound, how does the IC50 [2] read?
**A.** 1.68 µM

**Q.** What about the inhibition [1] of the same compound?
**A.** 85.9%

**Q.** And the inhibition [5]?
**A.** 72.4%

**Q.** What about the inhibition [4] of the same compound?
**A.** 34%

**Q.** How did the IC50 [2] turn out when `COC(=O)c1cc(Cc2ccccc2Cl)c(=O)[nH]c1C` was run?
**A.** 2.66 µM

**Q.** And the inhibition [1]?
**A.** 85.8%

**Q.** And the inhibition [3]?
**A.** 36.9%

**Q.** And the inhibition [5]?
**A.** 87.7%

**Q.** Which inhibition [1] does the source give for `Cc1[nH]c(=O)c(Cc2ccc(Cl)cc2)cc1C#N` here?
**A.** 41.2%

**Q.** With `CCOC(=O)c1cc(Cc2ccccc2)c(=O)[nH]c1-c1ccccc1` as the compound, how does the IC50 [2] read?
**A.** 7.3 µM

**Q.** What about the inhibition [1] of the same compound?
**A.** 83%

**Q.** And the inhibition [5]?
**A.** 55.4%

**Q.** What about the inhibition [4] of the same compound?
**A.** 33.9%

**Q.** Which IC50 [2] does the source give for `CCOC(=O)c1cc(Cc2ccc(Br)cc2)c(=O)[nH]c1-c1ccccc1` here?
**A.** 8.47 µM

**Q.** What about the inhibition [1] of the same compound?
**A.** 74.1%

**Q.** And the inhibition [3]?
**A.** 21.5%

**Q.** What about the inhibition [5] of the same compound?
**A.** 55.4%

**Q.** What does the source list for `Cc1[nH]c(=O)c(Cc2ccc(Cl)cc2Cl)cc1C#N`?
**A.** IC50 [2]: 280.7 µM; inhibition [1]: 79.5%; inhibition [5]: 23.1%; inhibition [4]: 0%

**Q.** With `COC(=O)c1cc(Cc2ccccc2)c(=O)[nH]c1C` as the compound, how does the IC50 [2] read?
**A.** 163.5 µM

**Q.** And the inhibition [1]?
**A.** 76.7%

**Q.** What about the inhibition [3] of the same compound?
**A.** 36.9%

**Q.** What about the inhibition [4] of the same compound?
**A.** 21.5%

**Q.** `CCOC(=O)c1cc(Cc2ccc(Cl)cc2)c(=O)[nH]c1-c1ccccc1` was tested. Which inhibition [1] did it give?
**A.** 1.1%
